Measured values taken from patent US20140357512A1, “HISTONE DEACETYLASE (HDAC) BIOMARKERS IN MULTIPLE MYELOMA” (priority 2013, published 2014).

Test system: human myeloma cell line MM.1S
Experiment: SILAC acetylated-lysine peptide profiling, HDAC inhibitor vs DMSO (light/heavy ratio)
Type: cell-based
Source text: An embodiment of the invention comprises utilizing the SILAC method in order to quantitate changes in protein expression between two or more populations of cells. The SILAC method is a technique based on mass spectrometry that detects differences in protein abundance among samples using non-radioactive isotopic labeling. The SILAC method is known in the art, and described in detail in Ong et al., “Stable Isotope Labeling by Amino Acids in Cell Culture, SILAC, as a Simple and Accurate Approach to Expression Proteomics”, Molecular & Cellular Proteomics, vol. 1, pp. 376-386 (2002), which is incorporated herein by reference in its entirety.
Briefly, the SILAC method involves growing two populations of cells in cell culture. The first population of cells is grown in growth media containing normal amino acids (“normal media”). The second population of cells is grown in media lacking a standard essential amino acid (such as lysine), but is then supplemented with a non-radioactive, isotopically labeled form of that essential amino acid (such as lysine labeled with ^13C atoms, rather than normal ^12C atoms), which is called “heavy media”. When the two populations of cells are each growing in the medium, they incorporate the amino acids into all of their proteins. The growth of cells maintained in the heavy media is no different from that in normal media. All peptides containing the heavy amino acids are heavier than their normal counterparts. The cells from each of the two populations of cells are lysed. The lysates from each of the two cell populations are then combined. The combined cell lysates are then analyzed by mass spectrometry. Pairs of chemically identical peptides of different stable isotope composition can be differentiated in a mass spectrometer due to their difference in mass. The ratio of peak intensities in the mass spectrum for such peptide pairs reflects the abundance ratio for the two proteins.
This example describes SILAC studies that were performed to compare the effects of three different HDAC inhibitors (Compound A, Compound B, and tubastatin A) to a control on a human multiple myeloma cell line. The HDAC inhibitors were also compared amongst themselves to determine differences in their effects.
A human myeloma cell line MM.1S was grown using either ^12C (light) or ^13C (heavy) lysine containing culture medium. The “heavy” cells were treated with DMSO as the control, and the “light” cells were treated with a single HDAC inhibitor at 37° C. for 6 hours. The heavy and light cells were lysed, and the lysates were mixed in 1:1 ratio and digested with the protease trypsin. The acetylated lysine containing peptides (due to the action of the HDAC inhibitor) in the digested peptide pool were captured by a non-specific anti-acetylated lysine antibody cocktail (the antibodies identify both light and heavy acetylated peptides), and subjected to mass spectrometry analysis in order to identify thousands of individual peptides.
Thousands of peptides were identified in pairs (^12C and ^13C) due to their known mass differences. The amino acid sequence and quantitative ratio (Light/Heavy) of a given peptide in two differentially treated cell lysates were then determined and annotated with their possible protein (gene) sources.
As stated above, three HDAC inhibitors (Compound A, Compound B, and Tubastatin A) were used. Thus, the SILAC method was performed three times, with a different HDAC inhibitor compared to a control each time. Accordingly, there are three pairs of quantitative data in the table below, i.e., Compound A:DMSO, Compound B:DMSO, and Tubastatin A:DMSO. A cut-off of 1.30 fold of change (increase or decrease) was then used to determine “changed” or “+” in the table, and any peptides with a fold of change less than 1.3 fold were determined to be “unchanged” or “0” in the table. Those peptides that were not identified were marked as “NA” in the table. […]

## CN1CCc2c(c3ccccc3n2Cc2ccc(C(=O)NO)cc2)C1 [Tub A]
10 kDa heat shock protein mitochondrial [70], gene HSPE1, drug:DMSO
  light to heavy ratio (L/H ratio), log 2 scale, acetylated peptide VGDK(ac)VLLPEYGGTK (SEQ ID NO: 773): 0.00
39S ribosomal protein L20 mitochondrial [26], MRPL20, drug:DMSO
  light to heavy ratio (L/H ratio) of acetylated peptide IQEVLK(ac)HAR (SEQ ID NO: 264): 0.38 log 2
40S ribosomal protein S3a [85], SNORD73A, RPS3A, drug:DMSO
  light to heavy ratio (L/H ratio) of acetylated peptide FK(ac)LITEDVQGK (SEQ ID NO: 287): −0.66 log 2
40S ribosomal protein S10 [31], RPS10, drug:DMSO
  light to heavy ratio (L/H ratio) of acetylated peptide KDVHMPK(ac)HPELADK (SEQ ID NO: 353): 0.00 log 2
40S ribosomal protein S17 [49], gene RPS17, RPS17L, inhibitor:DMSO
  light to heavy ratio (L/H ratio) of acetylated peptide NK(ac)IAGYVTHLMK (SEQ ID NO: 559): 0.00 log 2
40S ribosomal protein S23 [54], RPS23, drug:DMSO
  light to heavy ratio (L/H ratio) of acetylated peptide GIVLEK(ac)VGVEAK (SEQ ID NO: 320): −0.55 log 2
60S ribosomal protein L3 [362], gene SNORD43, RPL3, drug:DMSO
  light to heavy ratio (L/H ratio), log 2 scale, acetylated peptide ALEK(ac)IDLK (SEQ ID NO: 813): 0.00
60S ribosomal protein L6 [211], RPL6, drug:DMSO
  light to heavy ratio (L/H ratio) of acetylated peptide IPK(ac)HLTDAYFK (SEQ ID NO: 259): −0.63 log 2
60S ribosomal protein L10-like [208], gene RPL10L, inhibitor:DMSO
  light to heavy ratio (L/H ratio) of acetylated peptide GPLDK(ac)WR (SEQ ID NO: 622): 0.00 log 2
60S ribosomal protein L10 [78], gene SNORA70, RPL10, drug:DMSO
  light to heavy ratio (L/H ratio), log 2 scale, acetylated peptide YMVK(ac)SCGK (SEQ ID NO: 811): 0.00
60S ribosomal protein L13 [174], gene RPL13, inhibitor:DMSO
  light to heavy ratio (L/H ratio) of acetylated peptide VITEEEK(ac)NFK (SEQ ID NO: 522): 0.00 log 2
60S ribosomal protein L13a [25], gene SNORD32A, RPL13A, SNORD33, SNORD34, inhibitor:DMSO
  light to heavy ratio (L/H ratio) of acetylated peptide LAAIVAK(ac)QVLLGR (SEQ ID NO: 505): 0.00 log 2
60S ribosomal protein L13a [134], gene SNORD32A, RPL13A, SNORD33, SNORD34, inhibitor:DMSO
  light to heavy ratio (L/H ratio) of acetylated peptide K(ac)FAYLGR (SEQ ID NO: 614): 0.00 log 2
60S ribosomal protein L13a [148], gene SNORD32A, RPL13A, SNORD33, SNORD34, drug:DMSO
  light to heavy ratio (L/H ratio), log 2 scale, acetylated peptide LAHEVGWK(ac)[…] (SEQ ID NO: 812): 0.00
60S ribosomal protein L15 [153], gene RPL15, inhibitor:DMSO
  light to heavy ratio (L/H ratio) of acetylated peptide RNPDTQWITK(ac)PVHK (SEQ ID NO: 581): 0.00 log 2
60S ribosomal protein L27 [93], gene RPL27, drug:DMSO
  light to heavy ratio (L/H ratio), log 2 scale, acetylated peptide YSVDIPLDK(ac)TVVNK (SEQ ID NO: 807): 0.00
60S ribosomal protein L27 [98], gene RPL27, drug:DMSO
  light to heavy ratio (L/H ratio), log 2 scale, acetylated peptide TVVNK(ac)DVFR (SEQ ID NO: 766): 0.00
60S ribosomal protein L28 [19], gene RPL28, inhibitor:DMSO
  light to heavy ratio (L/H ratio) of acetylated peptide NCSSFLIK(ac)R (SEQ ID NO: 558): 0.00 log 2
60S ribosomal protein L35a [8], gene RPL35A, inhibitor:DMSO
  light to heavy ratio (L/H ratio) of acetylated peptide LWSK(ac)AIFAGYK (SEQ ID NO: 538): 0.00 log 2
60S ribosomal protein L35a [15], RPL35A, drug:DMSO
  light to heavy ratio (L/H ratio) of acetylated peptide AIFAGYK(ac)R (SEQ ID NO: 300): 0.44 log 2
78 kDa glucose-regulated protein [268], HSPA5, drug:DMSO
  light to heavy ratio (L/H ratio) of acetylated peptide VMEHFIK(ac)LYK (SEQ ID NO: 276): −0.66 log 2
78 kDa glucose-regulated protein [326], HSPA5, drug:DMSO
  light to heavy ratio (L/H ratio) of acetylated peptide AK(ac)FEELNMDLFR (SEQ ID NO: 266): −0.52 log 2
(ac)AVPPTYADLGK(ac)SAR (SEQ ID NO: 464), Voltage-dependent anion-selective channel protein 1 [12], VDAC1
  L/H ratio of acetylated peptide: 0.00 log 2
(ac)SIGVPIK(ac)VLHEAEGHIVTCETNTGEVYR (SEQ ID NO: 224), Small nuclear ribonucleoprotein Sm D3 [8], SNRPD3
  light to heavy ratio (L/H ratio) of acetylated peptide, log 2 scale: 0.40
(ac)SSNECFK(ac)CGR (SEQ ID NO: 379), Isoform 1 of Cellular nucleic acid-binding protein [8], CNBP
  L/H ratio of acetylated peptide: 0.00 log 2
(ac)SVFGK(ac)LFGAGGGK (SEQ ID NO: 143), Charged multivesicular body protein 4b [6], CHMP4B
  light to heavy ratio (L/H ratio) of acetylated peptide, log 2 scale: −0.39
ACADVL [428], log 2 scale, drug vs DMSO
  L/H ratio of acetylated peptide IHNFGLIQEK(ac)LAR (SEQ ID NO: 19): −0.60
ACOX1 [504], log 2 scale, drug vs DMSO
  L/H ratio of acetylated peptide NLQK(ac)EVIHR (SEQ ID NO: 125): 0.54
ACTN1 [398], log 2 scale, drug vs DMSO
  L/H ratio of acetylated peptide LDHLAEK(ac)FR (SEQ ID NO: 20): −0.51
ADAR [757], log 2 scale, drug vs DMSO
  L/H ratio of acetylated peptide LVDQSGPPHEPK(ac)FVYQAK (SEQ ID NO: 126): −0.41
ADINTK(ac)WAATR (SEQ ID NO: 202), Ribosomal protein L14 variant [85], RPL14
  light to heavy ratio (L/H ratio) of acetylated peptide, log 2 scale: −0.50
ADK(ac)DYHFK (SEQ ID NO: 191), Isoform 2 of Nucleophosmin [27], NPM1
  light to heavy ratio (L/H ratio) of acetylated peptide, log 2 scale: −0.60
ADP-ribosylation factor-like protein 6-interacting protein 1 [96], ARL6IP1, drug:DMSO
  light to heavy ratio (L/H ratio) of acetylated peptide IFGSNK(ac)WTTEQQQR (SEQ ID NO: 306): 0.45 log 2
ADP-ribosylation factor-like protein 11 [31], gene ARL11, inhibitor:DMSO
  light to heavy ratio (L/H ratio) of acetylated peptide TTLLYK(ac)LK (SEQ ID NO: 624): 0.00 log 2
ADP/ATP translocase 1 [166], SLC25A4, drug:DMSO
  light to heavy ratio (L/H ratio) of acetylated peptide IFK(ac)SDGLR (SEQ ID NO: 280): 0.48 log 2
ADP/ATP translocase 3 [166], gene SLC25A6, inhibitor:DMSO
  light to heavy ratio (L/H ratio) of acetylated peptide ITK(ac)SDGIR (SEQ ID NO: 587): 0.00 log 2
AFG3L2 [543], log 2 scale, drug vs DMSO
  L/H ratio of acetylated peptide HLSDSINQK(ac)HFEQAIER: −0.39
AFYK(ac)SFSK (SEQ ID NO: 170), Endoplasmin [360], HSP90B1
  light to heavy ratio (L/H ratio) of acetylated peptide, log 2 scale: −1.00
AGVNTVTTLVENK(ac)K (SEQ ID NO: 206), 60S ribosomal protein L7a [150], RPL7A, SNORD24
  light to heavy ratio (L/H ratio) of acetylated peptide, log 2 scale: −0.42
AGYNVK(ac)QLFR (SEQ ID NO: 199), Isoform 1 of Ras-related protein Rab-6A [164], RAB6A
  light to heavy ratio (L/H ratio) of acetylated peptide, log 2 scale: 0.45
AHPVFYQGTYSQALNDAK(ac)R (SEQ ID NO: 153), FAS-associated factor 2 [167], FAF2
  light to heavy ratio (L/H ratio) of acetylated peptide, log 2 scale: −0.48
ANP32B [101], log 2 scale, drug vs DMSO
  L/H ratio of acetylated peptide LK(ac)DISTLEPLKK (SEQ ID NO: 21): −0.56
ANXA6 [63], log 2 scale, drug vs DMSO
  L/H ratio of acetylated peptide QRQEVCQSYK(ac)SLYGK (SEQ ID NO: 22): 0.68
ANXA11 [478], log 2 scale, drug vs DMSO
  L/H ratio of acetylated peptide LGTDESK(ac)FNAVLCSR (SEQ ID NO: 7): −0.44
